Experimental data as given in ChEMBL document CHEMBL5579865, “Discovery of Broad-Spectrum Herpes Antiviral Oxazolidinone Amide Derivatives and Their Structure-Activity Relationships” (ACS Med Chem Lett, 2024).
Converted amounts (≈) assume the structure as drawn. The source made the active and inactive calls. The rule behind the calls is not given here.

Legend:
[1] = Unbound fraction in Wistar rat plasma at 0.05 mg/kg,iv or 10 mg/kg,po administration; assay type: ADME, organism-based
[2] = Inhibition of VZV DNA polymerase extracted from baculovirus infected Sf21 cells using Heterodimeric nucleic acid as substrate preincubated with enzyme for 30 mins followed by substrate and dATP addition measured after 60 mins by biotinylated UTP incorporation based AlphaLISA assay; design: species or system Human alphaherpesvirus 3
[3] = Inhibition of Inward-rectifier potassium channel (unknown origin); design: species or system Homo sapiens
Human alphaherpesvirus 1 [4] = assay: Antiviral activity against HSV-1 F strain infected in African green monkey Vero cells assessed as reduction in viral replication incubated for 72 hrs by qRT-PCR analysis; assay type: functional, organism-based; conditions: Human alphaherpesvirus 1, F strain, Vero, 72 h; read-out: EC50
Human betaherpesvirus 5 = assay: Antiviral activity against HCMV AD169 infected in human MRC5 cells assessed as reduction in viral replication incubated for 72 hrs in presence of 50 % serum by qRT-PCR analysis; assay type: functional, organism-based; conditions: Human betaherpesvirus 5, AD169, MRC5, 72 h; read-out: EC50
[5] = target: Voltage-dependent L-type calcium channel subunit alpha-1C (Homo sapiens, UniProt Q13936); assay: Inhibition of Cav1.2 (unknown origin)
Human alphaherpesvirus 2 = assay: Antiviral activity against HSV-2 G strain infected in African green monkey Vero cells assessed as reduction in viral replication incubated for 72 hrs by qRT-PCR analysis; assay type: functional, organism-based; conditions: Human alphaherpesvirus 2, G strain, Vero, 72 h; read-out: EC50
[6] = Metabolic stability in human liver microsomes assessed as intrinsic clearance; assay type: ADME, Microsome; conditions: read-out: CLH
[7] = target: Sodium channel protein type 5 subunit alpha (Homo sapiens, UniProt Q14524); assay: Inhibition of Nav1.5 (unknown origin)
Human alphaherpesvirus 3 [8] = assay: Antiviral activity against VZV Street infected in human MeWo cells assessed as reduction in viral replication incubated for 72 hrs by qRT-PCR analysis; assay type: functional, organism-based; conditions: Human alphaherpesvirus 3, Street, MeWo, 72 h; read-out: EC50
[9] = Unbound volume of distribution in Wistar rat at 0.05 mg/kg,iv or 10 mg/kg,po administration; assay type: ADME, organism-based; conditions: in vivo
[10] = Unbound AUC in Wistar rat at 0.05 mg/kg,iv or 10 mg/kg,po administration; assay type: ADME, organism-based; conditions: in vivo
[11] = Unbound clearance in Wistar rat at 0.05 mg/kg,iv administration; assay type: ADME, organism-based; conditions: in vivo
[12] = Inhibition of HCMV DNA polymerase extracted from baculovirus infected Sf21 cells using Heterodimeric nucleic acid as substrate preincubated with enzyme for 30 mins followed by substrate and dATP addition measured after 60 mins by biotinylated UTP incorporation based AlphaLISA assay; design: species or system Human betaherpesvirus 5
[13] = MRT in Wistar rat at 0.05 mg/kg,iv or 10 mg/kg,po administration; assay type: ADME, organism-based; conditions: in vivo
[14] = Solubility in PBS at pH 7; assay type: physicochemical
Human alphaherpesvirus 1 [15] = assay: Antiviral activity against HSV-1 F strain intranasally infected in BALB/c mouse assessed as increase in mouse survival rate at 150 mg/kg,po bid administrated 2 days before viral infection measured after 2 days; assay type: functional, organism-based; conditions: time 2.0 day
Human alphaherpesvirus 1 [16] = assay: Antiviral activity against HSV-1 F strain intranasally infected in BALB/c mouse assessed as reduction in viral burden in brain at 30 to 150 mg/kg,po bid administration measured after 4 days by plaque assay; assay type: functional, organism-based; conditions: dose 30-150 mg/kg, time 4.0 day
[17] = target: Voltage-gated inwardly rectifying potassium channel KCNH2 (Homo sapiens, UniProt Q12809); assay: Inhibition of hERG by patch-clamp assay; assay type: toxicity
[18] = Oral bioavailability in Wistar rat at 10 mg/kg administration; assay type: ADME, organism-based; conditions: in vivo
[19] = Unbound volume of distribution in Wistar rat at 1 mg/kg,iv or 10 mg/kg,po administration; assay type: ADME, organism-based; conditions: in vivo
[20] = Unbound AUC in Wistar rat at 1 mg/kg,iv or 10 mg/kg,po administration; assay type: ADME, organism-based; conditions: in vivo
Cytomegalovirus [21] = assay: Antiviral activity against Cytomegalovirus Smith intraperitoneally infected in BALB/c mouse assessed as reduction in viral burden in salivary gland at 30 mg/kg,po bid administration measured after 10 days by plaque assay; assay type: functional, organism-based; conditions: route ip, time 10.0 day
Cytomegalovirus [22] = assay: Antiviral activity against Cytomegalovirus Smith intraperitoneally infected in BALB/c mouse assessed as reduction in viral burden in salivary gland at 150 mg/kg,po bid administration measured after 10 days by plaque assay; assay type: functional, organism-based; conditions: route ip, time 10.0 day
Human alphaherpesvirus 1 [23] = assay: Antiviral activity against HSV-1 F strain intranasally infected in BALB/c mouse assessed as reduction in viral burden in lung at 30 to 150 mg/kg,po bid administration measured after 4 days; assay type: functional, organism-based; conditions: dose 30-150 mg/kg, time 4.0 day
Human alphaherpesvirus 1 [24] = assay: Antiviral activity against HSV-1 F strain intranasally infected in BALB/c mouse assessed as increase in mouse survival at po bid administration for 7 days; assay type: functional, organism-based; conditions: time 7.0 day
Human alphaherpesvirus 1 [25] = assay: Antiviral activity against HSV-1 F strain intranasally infected in BALB/c mouse assessed as increase in mouse survival rate at 150 mg/kg,po bid administration for 7 days relative to control; assay type: functional; conditions: Human alphaherpesvirus 1, F strain, 168 h, time 7 day
Human alphaherpesvirus 1 [26] = assay: Antiviral activity against HSV-1 F strain intranasally infected in BALB/c mouse assessed as increase in mouse survival rate at 30 mg/kg,po bid administrated 2 days before viral infection measured after 2 days; assay type: functional, organism-based; conditions: time 2.0 day
[27] = Unbound clearance in Wistar rat at 1 mg/kg,iv administration; assay type: ADME, organism-based; conditions: in vivo
[28] = MRT in Wistar rat at 1 mg/kg,iv or 10 mg/kg,po administration; assay type: ADME, organism-based; conditions: in vivo
Cytomegalovirus [29] = assay: Antiviral activity against Cytomegalovirus Smith intraperitoneally infected in BALB/c mouse assessed as reduction in viral burden in spleen at 150 mg/kg,po bid administration measured after 4 days by plaque assay; assay type: functional, organism-based; conditions: route ip, time 4.0 day
Cytomegalovirus [30] = assay: Antiviral activity against Cytomegalovirus Smith intraperitoneally infected in BALB/c mouse assessed as reduction in viral burden in spleen at 30 mg/kg,po bid administration measured after 4 days by plaque assay; assay type: functional, organism-based; conditions: route ip, time 4.0 day
[31] = Unbound fraction in Wistar rat plasma at 1 mg/kg,iv or 10 mg/kg,po administration; assay type: ADME, organism-based
Human alphaherpesvirus 3 [32] = assay: Antiviral activity against VZV Street infected in human MRC5 cells assessed as reduction in viral replication incubated for 72 hrs by qRT-PCR analysis; assay type: functional, organism-based; conditions: Human alphaherpesvirus 3, Street, MRC5, 72 h
Cytomegalovirus [33] = assay: Antiviral activity against Cytomegalovirus Smith intraperitoneally infected in BALB/c mouse assessed as reduction in viral burden in salivary gland at 50 mg/kg,po bid administration measured after 10 days by plaque assay; assay type: functional, organism-based; conditions: route ip, time 10.0 day
Cytomegalovirus [34] = assay: Antiviral activity against Cytomegalovirus Smith intraperitoneally infected in BALB/c mouse assessed as reduction in viral burden in salivary gland at 25 mg/kg,ip qd administration measured after 10 days by plaque assay; assay type: functional, organism-based; conditions: time 10.0 day
[35] = MRT in Wistar rat at 3 mg/kg,iv or 10 mg/kg,po administration; assay type: ADME, organism-based; conditions: in vivo
[36] = Unbound volume of distribution in Wistar rat at 3 mg/kg,iv or 10 mg/kg,po administration; assay type: ADME, organism-based; conditions: in vivo
[37] = Unbound AUC in Wistar rat at 3 mg/kg,iv or 10 mg/kg,po administration; assay type: ADME, organism-based; conditions: in vivo
[38] = Unbound fraction in Wistar rat plasma at 3 mg/kg,iv or 10 mg/kg,po administration; assay type: ADME, organism-based
[39] = Unbound clearance in Wistar rat at 3 mg/kg,iv administration; assay type: ADME, organism-based; conditions: in vivo
Human alphaherpesvirus 1 [40] = assay: Antiviral activity against HSV-1 F strain intranasally infected in BALB/c mouse assessed as increase in mouse survival rate at 120 mg/kg,po bid administrated 2 days before viral infection measured after 2 days; assay type: functional, organism-based; conditions: time 2.0 day

Voltage-dependent L-type calcium channel subunit alpha-1C, sequence (Q13936 whole entry): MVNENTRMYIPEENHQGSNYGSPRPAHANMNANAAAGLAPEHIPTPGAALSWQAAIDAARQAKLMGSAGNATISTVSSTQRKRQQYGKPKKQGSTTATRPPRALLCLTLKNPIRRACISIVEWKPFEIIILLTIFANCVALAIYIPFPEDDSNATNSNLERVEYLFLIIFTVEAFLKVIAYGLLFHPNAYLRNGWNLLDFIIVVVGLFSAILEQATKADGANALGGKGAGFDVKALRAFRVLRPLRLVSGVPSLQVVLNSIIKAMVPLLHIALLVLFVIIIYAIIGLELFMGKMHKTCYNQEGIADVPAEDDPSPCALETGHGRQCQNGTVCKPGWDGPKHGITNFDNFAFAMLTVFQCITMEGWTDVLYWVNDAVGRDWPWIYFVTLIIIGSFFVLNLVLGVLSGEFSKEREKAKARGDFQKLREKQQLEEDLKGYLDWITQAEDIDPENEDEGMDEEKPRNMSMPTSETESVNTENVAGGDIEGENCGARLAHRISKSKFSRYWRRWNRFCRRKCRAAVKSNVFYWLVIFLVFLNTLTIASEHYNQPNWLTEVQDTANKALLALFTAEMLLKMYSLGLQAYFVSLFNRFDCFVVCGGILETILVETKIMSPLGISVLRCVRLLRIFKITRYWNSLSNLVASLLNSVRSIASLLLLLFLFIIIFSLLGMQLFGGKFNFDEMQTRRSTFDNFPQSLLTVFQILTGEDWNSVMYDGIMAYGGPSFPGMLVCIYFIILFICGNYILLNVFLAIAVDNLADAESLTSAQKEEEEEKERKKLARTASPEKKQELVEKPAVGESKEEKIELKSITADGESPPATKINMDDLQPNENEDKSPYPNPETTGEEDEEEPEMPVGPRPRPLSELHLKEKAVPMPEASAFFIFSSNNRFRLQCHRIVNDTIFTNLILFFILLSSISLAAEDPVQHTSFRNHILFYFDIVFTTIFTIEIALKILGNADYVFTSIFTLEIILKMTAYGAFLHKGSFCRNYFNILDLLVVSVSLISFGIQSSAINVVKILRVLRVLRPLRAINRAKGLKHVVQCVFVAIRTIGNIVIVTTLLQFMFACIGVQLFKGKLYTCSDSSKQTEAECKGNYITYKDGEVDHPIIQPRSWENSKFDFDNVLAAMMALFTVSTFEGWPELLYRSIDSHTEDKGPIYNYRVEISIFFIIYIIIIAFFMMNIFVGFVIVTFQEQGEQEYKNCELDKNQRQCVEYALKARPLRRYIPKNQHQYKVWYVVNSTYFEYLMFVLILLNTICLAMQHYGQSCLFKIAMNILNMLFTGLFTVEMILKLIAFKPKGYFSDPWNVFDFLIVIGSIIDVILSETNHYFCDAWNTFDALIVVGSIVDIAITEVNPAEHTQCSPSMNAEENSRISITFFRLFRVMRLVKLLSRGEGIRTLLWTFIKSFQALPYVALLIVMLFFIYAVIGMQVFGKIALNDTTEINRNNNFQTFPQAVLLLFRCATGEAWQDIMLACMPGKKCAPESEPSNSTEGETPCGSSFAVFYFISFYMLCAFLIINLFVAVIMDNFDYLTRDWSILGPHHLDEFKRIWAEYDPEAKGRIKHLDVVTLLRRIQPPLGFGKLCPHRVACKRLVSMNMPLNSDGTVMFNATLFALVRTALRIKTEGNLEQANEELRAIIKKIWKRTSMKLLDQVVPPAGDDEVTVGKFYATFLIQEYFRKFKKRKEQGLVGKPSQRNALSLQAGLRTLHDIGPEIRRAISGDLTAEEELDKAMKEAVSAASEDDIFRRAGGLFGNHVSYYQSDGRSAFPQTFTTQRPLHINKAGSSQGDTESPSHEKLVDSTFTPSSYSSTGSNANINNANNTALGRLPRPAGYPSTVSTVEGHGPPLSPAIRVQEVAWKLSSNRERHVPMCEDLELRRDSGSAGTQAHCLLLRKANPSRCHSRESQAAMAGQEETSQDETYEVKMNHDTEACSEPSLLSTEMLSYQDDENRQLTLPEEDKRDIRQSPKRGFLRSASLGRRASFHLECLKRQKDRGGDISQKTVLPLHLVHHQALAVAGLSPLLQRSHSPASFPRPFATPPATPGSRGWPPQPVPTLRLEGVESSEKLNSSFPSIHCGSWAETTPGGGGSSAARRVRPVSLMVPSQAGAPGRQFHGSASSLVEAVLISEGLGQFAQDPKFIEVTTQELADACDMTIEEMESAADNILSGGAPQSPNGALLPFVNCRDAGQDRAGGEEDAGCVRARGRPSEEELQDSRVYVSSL
Sodium channel protein type 5 subunit alpha, sequence (Q14524 whole entry): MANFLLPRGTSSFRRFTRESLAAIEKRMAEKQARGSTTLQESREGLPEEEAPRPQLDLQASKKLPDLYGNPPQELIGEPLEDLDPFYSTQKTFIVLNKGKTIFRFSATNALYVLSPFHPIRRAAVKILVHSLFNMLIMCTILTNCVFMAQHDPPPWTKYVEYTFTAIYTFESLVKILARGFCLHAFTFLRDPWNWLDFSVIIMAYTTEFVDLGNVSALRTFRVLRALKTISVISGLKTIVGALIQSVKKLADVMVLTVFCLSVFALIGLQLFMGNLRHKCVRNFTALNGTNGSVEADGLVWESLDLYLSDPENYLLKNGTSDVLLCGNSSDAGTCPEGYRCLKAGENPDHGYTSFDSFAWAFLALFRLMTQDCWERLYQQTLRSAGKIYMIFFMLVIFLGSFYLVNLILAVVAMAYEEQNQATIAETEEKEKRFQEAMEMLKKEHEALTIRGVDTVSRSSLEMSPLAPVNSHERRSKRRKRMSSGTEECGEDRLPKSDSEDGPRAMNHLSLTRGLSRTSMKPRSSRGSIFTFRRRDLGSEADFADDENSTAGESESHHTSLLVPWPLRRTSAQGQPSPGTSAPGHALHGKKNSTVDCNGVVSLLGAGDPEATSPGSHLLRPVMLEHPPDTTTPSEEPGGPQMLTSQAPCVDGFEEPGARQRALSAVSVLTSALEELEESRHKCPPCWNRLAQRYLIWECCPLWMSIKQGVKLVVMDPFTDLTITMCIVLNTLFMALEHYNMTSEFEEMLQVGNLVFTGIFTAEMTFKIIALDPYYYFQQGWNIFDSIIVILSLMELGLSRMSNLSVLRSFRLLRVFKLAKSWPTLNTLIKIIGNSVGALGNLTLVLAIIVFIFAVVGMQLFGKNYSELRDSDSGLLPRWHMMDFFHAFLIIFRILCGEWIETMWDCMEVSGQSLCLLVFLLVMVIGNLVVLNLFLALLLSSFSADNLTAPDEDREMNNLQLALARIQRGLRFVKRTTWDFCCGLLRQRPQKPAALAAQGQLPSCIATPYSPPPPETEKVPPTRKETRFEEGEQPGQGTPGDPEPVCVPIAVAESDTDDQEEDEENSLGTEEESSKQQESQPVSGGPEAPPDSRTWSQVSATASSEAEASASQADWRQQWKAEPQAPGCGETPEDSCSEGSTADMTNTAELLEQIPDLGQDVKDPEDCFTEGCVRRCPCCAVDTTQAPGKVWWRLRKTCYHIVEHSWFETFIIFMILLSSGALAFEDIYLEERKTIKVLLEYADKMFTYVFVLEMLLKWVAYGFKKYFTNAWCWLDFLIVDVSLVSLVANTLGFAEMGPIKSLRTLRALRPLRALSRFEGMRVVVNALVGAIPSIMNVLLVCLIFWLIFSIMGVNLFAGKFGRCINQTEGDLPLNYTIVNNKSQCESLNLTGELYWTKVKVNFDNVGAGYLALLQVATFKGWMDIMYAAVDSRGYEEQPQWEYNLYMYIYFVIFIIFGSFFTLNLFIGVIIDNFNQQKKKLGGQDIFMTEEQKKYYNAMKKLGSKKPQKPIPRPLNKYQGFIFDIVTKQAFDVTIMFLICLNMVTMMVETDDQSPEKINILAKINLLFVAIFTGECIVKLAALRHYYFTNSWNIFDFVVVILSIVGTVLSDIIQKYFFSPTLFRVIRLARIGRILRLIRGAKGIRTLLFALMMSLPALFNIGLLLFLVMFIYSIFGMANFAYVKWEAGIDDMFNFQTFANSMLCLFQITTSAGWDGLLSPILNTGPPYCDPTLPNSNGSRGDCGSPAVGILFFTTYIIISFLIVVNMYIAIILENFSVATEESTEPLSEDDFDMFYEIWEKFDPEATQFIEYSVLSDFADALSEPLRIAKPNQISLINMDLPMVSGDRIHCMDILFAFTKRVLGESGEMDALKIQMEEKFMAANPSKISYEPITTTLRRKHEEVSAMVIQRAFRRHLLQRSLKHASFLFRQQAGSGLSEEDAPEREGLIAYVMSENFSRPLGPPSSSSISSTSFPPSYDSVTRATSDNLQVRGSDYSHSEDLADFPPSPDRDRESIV

SMILES | IC50 [2] [nM] | IC50 [3] [µM] | EC50 (Human alphaherpesvirus 1 [4]) [nM] | EC50 (Human betaherpesvirus 5) [nM] | IC50 [5] [µM] | EC50 (Human alphaherpesvirus 2) [nM] | CLint scaled [6] [mL/min/kg] | IC50 [7] [µM] | EC50 (Human alphaherpesvirus 3 [8]) [nM] | IC50 [12] [nM] | solubility [14] [µM] | IC50 [17] [µM] | bioavailability [18] [%] | also measured
COc1cc(NC(=O)Cc2ccc(Cl)cc2Cl)ccc1C[C@H]1COC(=O)N1 | 12 | 20.9 | 198 | 349 | 9.6 | 222 | 20 | 8.2 | 154 | 16 | 28 (≈ 11.5 µg/mL) |  |  | fraction unbound [1]: 0.022; Vdu [9]: 33 L/kg; fAUC [10]: 3 nM·h; CL free [11]: 720 mL/min/kg; MRT [13]: 42 min
COc1cc(NC(=O)Cc2ccc(C(F)(F)F)cc2)ccc1C[C@H]1COC(=O)N1 | 13 | 25.1 | 115 | 641 | 7.6 | 114 | 20 | 13.2 | 126 | 22 | 129 (≈ 52.7 µg/mL) | 27 | 71 | Activity (Human alphaherpesvirus 1 [15]): Active; Activity (Human alphaherpesvirus 1 [16]): Active; Vdu [19]: 20 L/kg; fAUC [20]: 0.222 µM·h; Activity (Cytomegalovirus [21]): inactive; Activity (Cytomegalovirus [22]): Active; Activity (Human alphaherpesvirus 1 [23]): Active; Activity (Human alphaherpesvirus 1 [24]): Dose-Dependent Effect; survival at 150 mg/kg (Human alphaherpesvirus 1 [25]): 100%; Activity (Human alphaherpesvirus 1 [26]): Active; CL free [27]: 187 mL/min/kg; MRT [28]: 1.8 h; Activity (Cytomegalovirus [29]): Active; Activity (Cytomegalovirus [30]): inactive; fraction unbound [31]: 0.052
COc1cc(NC(=O)Cc2ccc(Br)cc2)ccc1C[C@H]1COC(=O)N1 | < 4 | 21.1 | 124 | 420 | 11.1 | 110 | < 16 | 12.1 |  | < 4 | 90 (≈ 37.7 µg/mL) |  | 23 | fraction unbound [1]: 0.022; EC50 (Human alphaherpesvirus 3 [32]): 231 nM; Vdu [9]: 68 L/kg; fAUC [10]: 2 nM·h; CL free [11]: 1168 mL/min/kg; MRT [13]: 54 min
Nc1nc2c(ncn2COC(CO)CO)c(=O)[nH]1 |  |  |  |  |  |  |  |  |  |  |  |  |  | Activity (Cytomegalovirus [33]): inactive; Activity (Cytomegalovirus [34]): inactive
COc1nc(NC(=O)Cc2ccc(Cl)cc2)ccc1C[C@H]1COC(=O)N1 | 15 | 14.2 | 70 | 249 | 13.5 | 85 |  | 10 | 46 | 44 |  | 16 | 62 | MRT [35]: 36 min; Vdu [36]: 15 L/kg; fAUC [37]: 0.299 µM·h; fraction unbound [38]: 0.025; CL free [39]: 444 mL/min/kg
Nc1nc2c(ncn2COCCO)c(=O)[nH]1 |  |  |  |  |  |  |  |  |  |  |  |  |  | Activity (Human alphaherpesvirus 1 [40]): Active
COc1cc(NC(=O)Cc2ccc(Cl)cc2)ccc1C[C@H]1COC(=O)N1 | 17 | 24.5 | 100 | 370 | 12.9 | 170 | 16 | 10.5 | 97 | 49 | 161 (≈ 60.3 µg/mL) | 20 | 27 | MRT [35]: 42 min; Vdu [36]: 24 L/kg; fAUC [37]: 0.228 µM·h; fraction unbound [38]: 0.027; CL free [39]: 605 mL/min/kg
